Measurements from patent publication US9521846B2, “Template-fixed peptidomimetics with antimicrobial activity” (priority 2006, dated 2016).
In brackets after ≈: the same amount, converted by molar mass. Non-standard residues stand in square brackets, D forms with d. Residues, ends and D or L forms follow the SMILES beside them. hSer = N[C@@H](CCO)C(=O)O; Dab = NCC[C@H](N)C(=O)O

Columns and labels:
[1] = test system: human red blood cells (hRBC); experiment: Hemolysis; format: cell-based; details: 100
[2] = Plasma stability, rat plasma; format: in vitro ADME
[3] = Plasma stability, human plasma; format: in vitro ADME
[4] = test system: Pseudomonas aeruginosa P1021903; format: cell-based; details: P1021903
Procedure, shortened: (§1)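 Inoculum standardised to 0.5 McFarland (approx. 10^6 CFU/ml) in Mueller-Hinton + 0.02% BSA was combined equally with serially halved peptide concentrations in the same medium, per a modified NCCLS microdilution procedure.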

[5] = test system: Pseudomonas aeruginosa IMP 1 Livermore 3140; format: cell-based; details: IMP 1 Livermore 3140
Procedure, shortened: as §1

[6] = test system: Pseudomonas aeruginosa P1021913; format: cell-based; details: P1021913
Procedure, shortened: as §1

[7] = test system: Pseudomonas aeruginosa P8191900; format: cell-based; details: P8191900
Procedure, shortened: as §1

[8] = test system: P. aeruginosa ATCC 27853; format: cell-based, Pseudomonas aeruginosa; details: ATCC 27853
Procedure, shortened: as §1

[9] = test system: P. aeruginosa
[10] = test system: HELA cells (Acc57); experiment: Cytotoxicity assay, MTT reduction (LC 50, GI 50); format: cell-based
Procedure, shortened: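 HeLa cells seeded at 7.0×10^3 cells/well, grown 24 h, then exposed to peptides at 12.5, 25 and 50 μM in triplicate for 48 h at 37 °C; MTT (0.5 mg/ml, 2 h), A595 read. Percent growth was taken relative to time-zero plates; LC50 and GI50 were interpolated by linear trend at −50% and 50% growth.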

[11] = test system: Pseudomonas aeruginosa (ATCC 27853); experiment: In vivo septicemia assay; parameters: species or system CD-1 mice; details: after 1 and 5 h, groups of 6 mice
Description: Groups of 6 CD-1 (Crl.) derived male mice weighing 24±2 g were used. The mice were each inoculated intravenously (IV) with an LD90-100 of Pseudomonas aeruginosa (ATCC 27853) (9×10^6 CFU/0.5 ml/mouse) in brain heart infusion broth without 5% mucin. Compound at doses of 5, 2.5, 1, 0.5, 0.25 and 0.1 mg/kg, vehicle (0.9% NaCl, 10 ml/kg) was administered subcutaneously (SC) to test animals at 1 hour after bacterial inoculation. Also, an additional group was treated twice with compound at a dose of 5 mg/kg at 1 and 6 hours after bacterial inoculation. Mortality was recorded once daily for 7 days following the bacterial inoculation and an increase of survival of the animals by 50 percent or more (^3 50%) after the bacterial inoculation, relative to vehicle control, indicates significant antimicrobial effect. The MED (ED50) was determined by nonlinear regression using Graph-Pad Prism (Graph Pad Software, USA).
Septicaemia experiment in mice: LD90-100 of Pseudomonas aeruginosa (ATCC 27853) (9×10^6 CFU/0.5 ml/mouse IV and after 1 h Ex. 1 s.c.
Septicaemia experiment in mice: LD90-100 of Pseudomonas aeruginosa (ATCC 27853) (9×10^6 CFU/0.5 ml/mouse IV), and after 1 and 5 h Ex. 40 s.c.
Septicaemia experiment in mice: LD90-100 of Pseudomonas aeruginosa (ATCC 27853) (9×10^6 CFU/0.5 ml/mouse IV), and after 1 and 5 h Ex. 50 s.c.

Row | SMILES | Hemolysis at 100 μg/ml [1] [%] | Stability rat Plasma t1/2 [2] [h] | Stability human Plasma t1/2 [3] [h] | MIC P. aeruginosa P1021903 [4] [µg/mL] | MIC P. aeruginosa IMP1 Livermore 3140 [5] [µg/mL] | MIC P. aeruginosa P1021913 [6] [µg/mL] | MIC P. aeruginosa P8191900 [7] [µg/mL] | MIC P. aeruginosa ATCC 27853 [8] [µg/mL] | Average MIC [9] [µg/mL] | Cytotoxicity GI50 Hela cells [10] [µM] | Dead ([11]; 2 × 0.1 mg/kg) | Survivors ([11]; 2 × 0.1 mg/kg) | Dead ([11]; 2 × 0.3 mg/kg) | Survivors ([11]; 2 × 0.3 mg/kg) | Dead ([11]; 2 × 1 mg/kg) | Survivors ([11]; 2 × 1 mg/kg) | Dead ([11]; 2 × 3 mg/kg) | Survivors ([11]; 2 × 3 mg/kg) | Dead ([11]; 2 × 10 mg/kg) | Survivors ([11]; 2 × 10 mg/kg)
1 | CC[C@H](C)[C@@H]1NC(=O)[C@H](Cc2c[nH]c3ccccc23)NC(=O)[C@H]([C@@H](C)O)NC(=O)[C@@H]2CCCN2C(=O)[C@H]2CCCN2C(=O)[C@H](CCN)NC(=O)CNC(=O)[C@H](CCN)NC(=O)[C@H](CCN)NC(=O)[C@H](Cc2c[nH]c3ccccc23)NC(=O)[C@H](CCN)NC(=O)[C@H](CCN)NC(=O)[C@H](CCCCN)NC(=O)[C@H](CCN)NC1=O [Example 2] (cyclo(TWI[Dab]K[Dab][Dab]W[Dab][Dab]G[Dab][dP]P)) | 0.3 | 5 | 5 | 0.16 (≈ 0.102 µM) | 0.24 (≈ 0.153 µM) | 0.18 (≈ 0.115 µM) | 0.10 (≈ 0.0638 µM) | 0.04 (≈ 0.0255 µM) | 0.15 | 50 |  |  |  |  |  |  |  |  |  | 
2 | CC[C@H](C)[C@@H]1NC(=O)[C@H](Cc2c[nH]c3ccccc23)NC(=O)[C@H]([C@@H](C)O)NC(=O)[C@@H]2CCCN2C(=O)[C@H]2CCCN2C(=O)[C@H](CCN)NC(=O)[C@H](C)NC(=O)[C@H](CCN)NC(=O)[C@H](CCN)NC(=O)[C@H](Cc2c[nH]c3ccccc23)NC(=O)[C@H](CCN)NC(=O)[C@H](CCCCN)NC(=O)[C@H](CCCCN)NC(=O)[C@H](CCN)NC1=O [Example 25] (cyclo(TWI[Dab]KK[Dab]W[Dab][Dab]A[Dab][dP]P)) | 0.1 | 5 | 5 | 0.05 (≈ 0.0311 µM) | 0.24 (≈ 0.149 µM) | 0.13 (≈ 0.0808 µM) | 0.10 (≈ 0.0622 µM) | 0.05 (≈ 0.0311 µM) | 0.11 | 50 |  |  |  |  |  |  |  |  |  | 
3 | CC[C@H](C)[C@@H]1NC(=O)[C@H](Cc2c[nH]c3ccccc23)NC(=O)[C@H]([C@@H](C)O)NC(=O)[C@@H]2CCCN2C(=O)[C@H]2CCCN2C(=O)[C@H](CCN)NC(=O)[C@H]([C@@H](C)O)NC(=O)[C@H](CCN)NC(=O)[C@H](CCN)NC(=O)[C@H](Cc2c[nH]c3ccccc23)NC(=O)[C@H](CCN)NC(=O)[C@H](CCN)NC(=O)[C@H](CCCCN)NC(=O)[C@H](CCN)NC1=O [Example 16] (cyclo(TWI[Dab]K[Dab][Dab]W[Dab][Dab]T[Dab][dP]P)) | 0.1 | 5 | 5 | 0.05 (≈ 0.031 µM) | 0.24 (≈ 0.149 µM) | 0.10 (≈ 0.0621 µM) | 0.09 (≈ 0.0559 µM) | 0.05 (≈ 0.031 µM) | 0.11 | 50 |  |  |  |  |  |  |  |  |  | 
4 | CC[C@H](C)[C@@H]1NC(=O)[C@H](Cc2c[nH]c3ccccc23)NC(=O)[C@H]([C@@H](C)O)NC(=O)[C@@H]2CCCN2C(=O)[C@H]2CCCN2C(=O)[C@H](CCN)NC(=O)[C@H](CCO)NC(=O)[C@H](CCN)NC(=O)[C@H](CCN)NC(=O)[C@H](Cc2c[nH]c3ccccc23)NC(=O)[C@H](CCN)NC(=O)[C@H](CCN)NC(=O)[C@H](CCCCN)NC(=O)[C@H](CCN)NC1=O [Example 35] (cyclo(TWI[Dab]K[Dab][Dab]W[Dab][Dab][hSer][Dab][dP]P)) | 0.2 | 5 | 5 | 0.10 (≈ 0.0621 µM) | 0.31 (≈ 0.192 µM) | 0.24 (≈ 0.149 µM) | 0.22 (≈ 0.137 µM) | 0.05 (≈ 0.031 µM) | 0.18 | 48 |  |  |  |  |  |  |  |  |  | 
5 | CC[C@H](C)[C@@H]1NC(=O)[C@H](Cc2c[nH]c3ccccc23)NC(=O)[C@H]([C@@H](C)O)NC(=O)[C@@H]2CCCN2C(=O)[C@H]2CCCN2C(=O)[C@H](CCC(N)=O)NC(=O)[C@H](C)NC(=O)[C@H](CCN)NC(=O)[C@H](CCN)NC(=O)[C@H](Cc2c[nH]c3ccccc23)NC(=O)[C@H](CCN)NC(=O)[C@H](CCN)NC(=O)[C@H](CCCCN)NC(=O)[C@H](CCC(N)=O)NC1=O [Example 40] (cyclo(TWIQK[Dab][Dab]W[Dab][Dab]AQ[dP]P)) | 0.7 |  |  | 0.50 (≈ 0.305 µM) | 1.00 (≈ 0.611 µM) | 0.50 (≈ 0.305 µM) | 0.50 (≈ 0.305 µM) | 0.25 (≈ 0.153 µM) | 0.55 | 50 | 6 | 0 | 6 | 0 | 2 | 4 | 0 | 6 | 0 | 6
